Assay results: patent publication US11951094B2, “TLR2 modulator compounds, pharmaceutical compositions and uses thereof” (Axial Therapeutics, Inc., priority 2020, dated 2024)

Target: TLR2 (Homo sapiens, UniProt O60603)
Assay: TLR2 agonist screening assay, HEK-Blue TLR2 reporter cell line (NF-kB-driven SEAP, absorbance at 600 nm)
Assay type: cell-based
Design: host or cells: HEK-293 (HEK-Blue TLR2 reporter cell line)
Conditions: HEK-Blue TLR2 reporter cells, agonist mode; average of all runs (Table 4)
In short: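 Read-out: SEAP colour change, A600, after overnight agonist exposure. Cells: HEK-293 overexpressing TLR2, NF-kB-SEAP reporter, ~40,000/well, plated 16-24 h prior.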

TLR2, sequence (O60603 21-784): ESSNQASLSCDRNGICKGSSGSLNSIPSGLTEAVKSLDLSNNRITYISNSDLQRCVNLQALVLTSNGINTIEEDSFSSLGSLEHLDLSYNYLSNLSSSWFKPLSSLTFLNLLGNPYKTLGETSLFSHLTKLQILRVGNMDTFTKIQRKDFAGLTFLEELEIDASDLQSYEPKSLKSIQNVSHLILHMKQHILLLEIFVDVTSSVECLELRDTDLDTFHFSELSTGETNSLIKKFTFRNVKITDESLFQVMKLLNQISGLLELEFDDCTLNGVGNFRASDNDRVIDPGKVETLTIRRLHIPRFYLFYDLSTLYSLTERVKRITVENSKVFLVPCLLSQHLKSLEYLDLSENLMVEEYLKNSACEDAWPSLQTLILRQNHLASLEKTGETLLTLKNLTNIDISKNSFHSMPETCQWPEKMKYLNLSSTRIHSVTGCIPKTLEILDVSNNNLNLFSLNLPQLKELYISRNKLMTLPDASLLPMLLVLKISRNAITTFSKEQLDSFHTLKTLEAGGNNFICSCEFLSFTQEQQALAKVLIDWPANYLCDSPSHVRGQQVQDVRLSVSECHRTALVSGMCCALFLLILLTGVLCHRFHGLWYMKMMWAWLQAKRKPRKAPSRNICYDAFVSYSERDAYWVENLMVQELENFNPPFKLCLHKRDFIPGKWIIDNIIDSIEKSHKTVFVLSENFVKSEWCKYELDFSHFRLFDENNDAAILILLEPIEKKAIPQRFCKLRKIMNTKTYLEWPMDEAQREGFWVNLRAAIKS

Structure (SMILES)	EC50 [nM]
CO[C@H]1CN(C(=O)c2ccc(C(=O)N3C[C@@H](C(=O)N[C@H]4C[C@@H]4c4ccccc4)[C@H](C(=O)N[C@H]4C[C@@H]4c4ccccc4)C3)cc2)C[C@@H]1NC(=O)NCc1ccc(F)cc1 [Compound 183, (3S,4S)-1-(4-((3S,4S)-3-(3-(4-fluorobenzyl)ureido)-4-methoxypyrrolidine-1-carbonyl)benzoyl)-N3,N4-bis((1S,2R)-2-phenylcyclopropyl)pyrrolidine-3,4-dicarboxamide]	51 to 350
CCCCCCNC(=O)[C@H](CNC(=O)c1ccc(C(=O)N2C[C@@H](C(=O)N[C@H]3C[C@@H]3c3ccccc3)[C@H](C(=O)N[C@H]3C[C@@H]3c3ccccc3)C2)cc1)NC(=O)NCc1ccc(F)cc1 [Compound 186, (3S,4S)-1-(4-(((S)-2-(3-(4-fluorobenzyl)ureido)-3-(hexylamino)-3-oxopropyl)carbamoyl)benzoyl)-N^3,N^4-bis((1S,2R)-2-phenylcyclopropyl) pyrrolidine-3,4-dicarboxamide]	0.1 to 50
CCCCCCCCCCCCCCNC(=O)[C@H]1CN(S(=O)(=O)c2cccc(C(=O)N3C[C@@H](C(=O)N[C@H]4C[C@@H]4c4ccccc4)[C@H](C(=O)N[C@H]4C[C@@H]4c4ccccc4)C3)c2)CCN1C(C)=O [Compound 192, (3S,4S)-1-(3-(((R)-4-acetyl-3-(tetradecylcarbamoyl)piperazin-1-yl)sulfonyl)benzoyl)-N3,N4-bis((1S,2R)-2-phenylcyclopropyl)pyrrolidine-3,4-dicarboxamide]	351 to 1000
CCCCCCCCCCCCCCC(=O)NC1CCN(S(=O)(=O)c2cccc(C(=O)N3C[C@@H](C(=O)N[C@H]4C[C@@H]4c4ccccc4)[C@H](C(=O)N[C@H]4C[C@@H]4c4ccccc4)C3)c2)CC1 [Compound 194, (3S,4S)-1-(3-((4-pentadecanamidopiperidin-1-yl)sulfonyl)benzoyl)-N3,N4-bis((1S,2R)-2-phenylcyclopropyl)pyrrolidine-3,4-dicarboxamide]	> 1000
O=C1CCCCCCCCCCCCNC(=O)[C@H](CNC(=O)c2ccc(C(=O)N3C[C@@H](C(=O)N[C@H]4C[C@@H]4c4ccccc4)[C@H](C(=O)N[C@H]4C[C@@H]4c4ccccc4)C3)cc2)N1 [Compound 225, (3S,4S)-1-(4-((((S)-3,17-dioxo-1,4-diazacycloheptadecan-2-yl)methyl)carbamoyl)benzoyl)-N3,N4-bis((1S,2R)-2-phenylcyclopropyl)pyrrolidine-3,4-dicarboxamide]	351 to 1000
CCCCCCNC(=O)[C@H](CNC(=O)c1ccc(C(=O)N2C[C@@H](C(=O)N[C@H]3C[C@@H]3c3ccccc3)[C@H](C(=O)N[C@H]3C[C@@H]3c3ccccc3)C2)cc1)NC(=O)OCCCCCC [Compound 226, hexyl ((S)-3-(4-((3S,4S)-3,4-bis(((1S,2R)-2-phenylcyclopropyl)carbamoyl)pyrrolidine-1-carbonyl)benzamido)-1-(hexylamino)-1-oxopropan-2-yl)carbamate]	> 1000
CCCCCCCCCC(=O)N[C@@H](CNC(=O)Nc1ccc(C(=O)N2C[C@@H](C(=O)N[C@H]3C[C@@H]3c3ccccc3)[C@H](C(=O)N[C@H]3C[C@@H]3c3ccccc3)C2)cc1)C(=O)NCCCCCC [Compound 235, (3S,4S)-1-(4-(3-((S)-2-decanamido-3-(hexylamino)-3-oxopropyl)ureido)benzoyl)-N3,N4-bis((1S,2R)-2-phenylcyclopropyl)pyrrolidine-3,4-dicarboxamide]	> 1000

The remaining lines, values ahead:

EC50 [nM]	Structure (SMILES)
51 to 350	CCCCCCCCCCCCCCNC(=O)[C@@H]1CN(S(=O)(=O)c2cccc(C(=O)N3C[C@@H](C(=O)N[C@H]4C[C@@H]4c4ccccc4)[C@H](C(=O)N[C@H]4C[C@@H]4c4ccccc4)C3)c2)CCN1C(C)=O [Compound 193, (3S,4S)-1-(3-(((S)-4-acetyl-3-(tetradecylcarbamoyl)piperazin-1-yl)sulfonyl)benzoyl)-N3,N4-bis((1S,2R)-2-phenylcyclopropyl)pyrrolidine-3,4-dicarboxamide]
> 1000	CCCCCCCCCCCCCCNC(=O)[C@H]1CN(S(=O)(=O)c2ccc(C(=O)N3C[C@@H](C(=O)N[C@H]4C[C@@H]4c4ccccc4)[C@H](C(=O)N[C@H]4C[C@@H]4c4ccccc4)C3)cc2)CCN1C(C)=O [Compound 195, (3S,4S)-1-(4-(((R)-4-acetyl-3-(tetradecylcarbamoyl)piperazin-1-yl)sulfonyl)benzoyl)-N3,N4-bis((1S,2R)-2-phenylcyclopropyl)pyrrolidine-3,4-dicarboxamide]
> 1000	CCCCCCCCCCCCCCNC(=O)[C@@H]1CN(S(=O)(=O)c2ccc(C(=O)N3C[C@@H](C(=O)N[C@H]4C[C@@H]4c4ccccc4)[C@H](C(=O)N[C@H]4C[C@@H]4c4ccccc4)C3)cc2)CCN1C(C)=O [Compound 196, (3S,4S)-1-(4-(((S)-4-acetyl-3-(tetradecylcarbamoyl)piperazin-1-yl)sulfonyl)benzoyl)-N3,N4-bis((1S,2R)-2-phenylcyclopropyl)pyrrolidine-3,4-dicarboxamide]
0.1 to 50	CCCCCCCCCNC(=O)[C@H](CNC(=O)c1ccc(C(=O)N2C[C@@H](C(=O)N[C@H]3C[C@@H]3c3ccccc3)[C@H](C(=O)N[C@H]3C[C@@H]3c3ccccc3)C2)cc1)NC(=O)CCCCCCCCC [Compound 207, (3S,4S)-1-(4-(((S)-2-decanamido-3-(nonylamino)-3-oxopropyl)carbamoyl)benzoyl)-N3,N4-bis((1S,2R)-2-phenylcyclopropyl)pyrrolidine-3,4-dicarboxamide]
0.1 to 50	CCCCCCCCCCCCCNC(=O)N[C@@H]1CN(C(=O)c2ccc(C(=O)N3C[C@@H](C(=O)N[C@H]4C[C@@H]4c4ccccc4)[C@H](C(=O)N[C@H]4C[C@@H]4c4ccccc4)C3)cc2)C[C@@H]1OC [Compound 208, (3S,4S)-1-(4-((3S,4R)-3-methoxy-4-(3-tridecylureido)pyrrolidine-1-carbonyl)benzoyl)-N3,N4-bis((1S,2R)-2-phenylcyclopropyl)pyrrolidine-3,4-dicarboxamide]
351 to 1000	CCCCCCCCCCCCCCOC(=O)N[C@H]1CN(C(=O)c2ccc(C(=O)N3C[C@@H](C(=O)N[C@H]4C[C@@H]4c4ccccc4)[C@H](C(=O)N[C@H]4C[C@@H]4c4ccccc4)C3)cc2)C[C@@H]1OC [Compound 218, Tetradecyl ((3S,4S)-1-(4-((3S,4S)-3,4-bis(((1S,2R)-2-phenylcyclopropyl)carbamoyl)pyrrolidine-1-carbonyl)benzoyl)-4-methoxypyrrolidin-3-yl)carbamate]
> 1000	CCCCCCCCCCCCCNC(=O)N[C@H]1CN(c2ncc(-c3ccc(C(=O)N4C[C@@H](C(=O)N[C@H]5C[C@@H]5c5ccccc5)[C@H](C(=O)N[C@H]5C[C@@H]5c5ccccc5)C4)cc3)o2)C[C@@H]1OC [Compound 234, (3S,4S)-1-(4-(2-((3S,4S)-3-methoxy-4-(3-tridecylureido)pyrrolidin-1-yl)oxazol-5-yl)benzoyl)-N3,N4-bis((1S,2R)-2-phenylcyclopropyl)pyrrolidine-3,4-dicarboxamide]
0.1 to 50	CCCCCCCCCCCCCCC(=O)N[C@H]1CN(C(=O)c2ccc(C(=O)N3C[C@@H](C(=O)N[C@H]4C[C@@H]4c4ccccc4)[C@H](C(=O)N[C@H]4C[C@@H]4c4ccccc4)C3)cc2)C[C@H]1OC [Compound 236, (3S,4S)-1-(4-((3R,4S)-3-methoxy-4-pentadecanamidopyrrolidine-1-carbonyl)benzoyl)-N3,N4-bis ((1S,2R)-2-phenylcyclopropyl) pyrrolidine-3,4-dicarboxamide]
